The values that follow come from US20170275344A1, “POLYPEPTIDES AND USES THEREOF AS A DRUG FOR TREATMENT OF AUTOIMMUNE DISORDERS” (Compugen Ltd., priority 2014, published 2017).

Several values for one entry are separate records, joined by “and”; a condition that tells them apart may be missing. Equal values may be shown once.

Assay [1] relates to healthy human skin transplanted onto beige-SCID mice. Kind of assay: Humanized psoriasis model: healthy human skin xenotransplants on beige-SCID mice injected with psoriatic patients' PBMCs. Type of assay: in vivo, mouse. The settings on record: for Healthy Skin (number of grafts) / Partial Psoriasiform With Tendency Towards Healthy skin (number of grafts) / Psoriasiform Skin (number of affected grafts, histological evaluation) / Total No. of Healthy Grafts (%): 28 days after start of treatment; for Epidermal thickness of grafts, Mean: mean of 9-10 mice, PBS mean 682; for proliferation index (% Ki-67 positive cells) in the xenografted skin: vs vehicle treated group. The text has this:
In this model, psoriasis is induced in xenotransplants of healthy human skin transplanted onto beige severe combined immunodeficiency (SCID) mice followed by intradermal (i.d.) injection of IL-2 enriched Peripheral Blood Mononuclear Cells (PBMCs) isolated from blood of psoriasis patients (Nickoloff, 1995; Wrone-Smith, 1996 Gilhar et al., 2002, 2006, 2011). The activity of these compounds was compared to that of Enbrel, a TNF inhibitor which is an approved biological drug for treatment of psoriasis. As a control for model robustness, we used dexamethasone, a steroid with suppressive effects on inflammatory cytokines and chemokines such as TNF-alpha and interferon-gamma which cause severe psoriasis. All treatments were administered intradermally, except for dexamethasone which was given topically.
Study Protocol: A) Healthy human skin pieces with a width of 0.4 mm and surface area of 1.5×1.5 cm were provided from residual skin of routine plastic surgery procedures from the Plastic Surgery Department of the Rambam Medical Center, Israel. In addition, 20 mL blood samples were taken from psoriatic patients. B) Seventy (70) beige-severe combined immunodeficient mice (SCID) (weight˜20-25 g) were included in this study. Normal healthy human donor skin was transplanted onto the beige-SCID mice as previously described (Nickoloff et al., 1995; Wrone-Smith, 1996; Gilhar et al., 2002, 2006, 2011; Kalish et al., 2009) and the mice were divided into 7 groups. C) Peripheral Blood Mononuclear Cells (PBMCs) isolated from psoriatic patients' blood were cultured in the presence of IL-2 [Prospec, 100 U/mL of RPMI 1640 media, 10% human AB serum (Sigma, St. Louis, Mo.), 1% glutamine, 1% antibiotics (media components; Biological Industries, Kibbutz Beit Haemeck, Israel)] for 14 days, as previously described (Gilhar et al, 2002). D) Four weeks following engraftment, each mouse was injected intra-dermally (i.d.) into the grafted skin lesion, with 1×10^7 activated allogeneic enriched PBMCs from psoriatic patients (FIG. 20). Cells from different psoriasis patients were equally distributed between treatment groups so that each patient is represented in each treatment group. E) On the day of PBMCs injection into the skin grafts, mice were divided randomly into treatment groups (n=9-10 mice per group) and administration of all drugs started (FIG. 20). All tested compounds including the vehicle were given intradermally (intralesional), three times a week, except for dexamethasone which was given topically for 14 consecutive days (Table 3).
F) Twenty eight days after starting the injections and treatment, skin was harvested (FIG. 20). Grafts were analyzed for the following psoriatic parameters by histology: epidermal thickening (acanthosis), suprapapillary epidermal thinning (papillomatosis), hyperkeratosis, parakeratosis, orthokeratosis, agranulosis-hypogranulosis, appearance of neutrophils in the upper spinous layer or in the corneal cell layer—Munro microabscess, regular elongation of rete ridges, angiogenesis, edema and dilated tortuous blood vessels in the dermal papilla and mononuclear cell infiltrate in the papillary dermis. Epidermal thickness was measured as detailed below, and HLA-DR, ICAM-1, Ki-67 and immune infiltrates (anti-CD3 stain) were evaluated by immunohistochemistry (IHC).
The entire skin graft was excised and placed in 10% formal saline overnight. Then, the specimens were place in 70% ethanol and were embedded according to the standard H&E protocol. Histological assessment of the skin grafts was performed by light microscopy and evaluated by two blinded observers [the second observer evaluated random slides (about 25% of all slides) to compare the data obtained by the first observer. […] Epidermal thickness was determined with an ocular micrometer at a minimum of 50 points along the epidermis selected to represent points of maximal and minimal thickness.
Representative grafts were allocated for IHC analysis. […]

For the next assay, the system named is PBMCs from MS patients. The assay is described as follows: MS patients' PBMCs: proliferation and cytokine secretion. Format: cell-based, human. Here is the method: PBMCs were taken from eight MS patients with diagnosed relapsing-remitting disease who have experienced a relapse 1-2 days prior to blood drawing.
PBMCs were plated in a flat-bottom 96-well plate at 1e6 cells/well. The cells were cultured in the presence of anti-CD3 (0.5 ug/ml), MS-specific peptide MBP85-96 (10 ug/ml), or tetanus toxoid peptide TT830-843 (10 ug/ml). C1ORF32 ECD-Fc (SEQ ID NO: 43) or Control Ig were added to the cuture at the indicated concentrations. Two replicate plates were set to study for the effect of C1ORF32 ECD-Fc (SEQ ID NO: 43) on proliferation and on pro-inflammatory and anti-inflammatory cytokines secretion. To test for proliferation, the cultures were pulsed on day +1 of culture with 1 uCi of tritiated thymidine and then harvested 3 days later on day +4 of culture. For cytokine analysis, super natantes from a replicate cultures were collected on day +4 of culture and tested using Millipore multiplex assay.

The test system of assay [2] is co-cultures of TcK and macrophages. The assay is described as follows: TcK : macrophage co-culture, cytokine secretion. Type of assay: cell-based, human. Here is the method: • Purified CD4+ cells (2×10^6 cells/ml) are activated for 6 days in complete medium containing IL-15 (100 ng/ml), IL-6 (100 ng/ml) and TNFα (25 ng/ml).
After 6 days in culture, T cells are washed 3 times in complete medium and counted
TcKs are added to macrophage culture following removal of existing culture media at […] (5×10^4 cells/well/CD4+ T cells plus 2×10^5 cells/well CD14^+ Macrophages). C1ORF32 ECD-Fc (SEQ ID NO:43) or Control IgG are added at 1, 3, 10, 30 μg/ml. For additional controls co-cultures are added with vehicle or with medium only (Wennink et al., 2012).
After 24 hrs of culture, cytokines (IL-10, IFN-α, IL-6, IL-12, CCL5, IL-13, IL-15, IL-17, CCL3, GM-CSF, IFNγ, TNFα, IL-1RA, IL-7, IL-1B, eotaxin, IL-2 IL-4 and IL-2R) are analyzed using ELISA and/or Luminex
Co-culture of TcK with autologeuos ex-vivo differentiated macrophages mimics one of the crucial pathways mediating synovial macrophage activation in RA thus serving as a translational tool for evaluating the therapeutic potential of drug candidates. Therefore the effect of C1ORF32 ECD-Fc (SEQ ID NO:43) was tested on the secretion of a range of pro-inflammatory and anti-inflammatory cytokines in such co-cultures. Two studies were carried out, one in which buffy coats from healthy volunteers was used and another study in which the responses of RA patients blood cells responses were compared to that of healthy voluntiers in which blood was used rather than buffy coats.

Where [3] appears, read: PBMCs activated ex-vivo with MBP85-96.
The mark [4] stands for this setting: healthy volunteers, 24 hrs co-culture.

As for `C[C@@H]1C[C@H]2[C@@H]3CCC4=CC(=O)C=C[C@]4(C)[C@@]3(F)[C@@H](O)C[C@]2(C)[C@@]1(O)C(=O)CO` [dexamethasone], the “Healthy Skin (number of grafts)” value in assay [1] was 7/10. Moreover, the “Partial Psoriasiform With Tendency Towards Healthy skin (number of grafts)” value in assay [1] is on record as 1; in assay [1] (listed as Dexa), 1/10. Besides, the “Psoriasiform Skin (number of affected grafts, histological evaluation)” value in assay [1] is 2 and 2/10; in assay [1] (listed as Dexa), 2/10. In addition, the “Total No. of Healthy Grafts (%)” value in assay [1] stood at 70%. The “Epidermal thickness of graft” value turned out to be 204 μm in assay [1] (Source of graft (Patient)); 359 μm in assay [1] (Source of graft (Patient) A); 596 μm in assay [1] (Source of graft (Patient) B); 183 μm in assay [1] (Source of graft (Patient) C); 377 μm in assay [1] (Source of graft (Patient) D); 391 μm in assay [1] (Source of graft (Patient) E). In addition, the “Epidermal thickness of graft” value is recorded as 266 μm in assay [1] (Source of graft (Patient) G1), 262 μm in assay [1] (Source of graft (Patient) H), 289 μm in assay [1] (Source of graft (Patient) K) and 232 μm in assay [1] (Source of graft (Patient) P). The “Epidermal thickness of grafts, Mean” value in assay [1] was found to be 315 μm.
With “C1ORF32 ECD-Fc (SEQ ID NO: 43): fusion protein of human C1ORF32 ECD fused to human immunoglobulin Fc (human-human fusion protein)”, in the assay on PBMCs from MS patients (setting [3]), the “IFNg, IL-17, TNFa secretion” value is on record as “inhibition”. In addition, the “IL-4, IL-10, TGFβ and IL-6 secretion” value in the assay on PBMCs from MS patients (setting [3]) was “increase”. In addition, the cell proliferation entry in the assay with PBMCs from MS patients (setting [3]) is listed as “inhibition of cells proliferation”. Also, the “proliferation, or secretion of IFNg, IL-17, and TNFa” value in the assay with PBMCs from MS patients (absence of activation) is listed as “no effect”. For the same compound, the “IL-10, IL-4, TGFβ and IL-6” value in the assay on PBMCs from MS patients (absence of activation, in some of the donors) is given as “elevation”. In addition, in assay [1], the “Healthy Skin (number of grafts)” value is given as 5/9. Also, in assay [1], the “Psoriasiform Skin (number of affected grafts, histological evaluation)” value was 4/9. In addition, the “Total No. of Healthy Grafts (%)” value in assay [1] was 55.5% and 55%. Also, the “expression of HLA-DR, ICAM-1 and Ki-67 (IHC)” value in assay [1] (IHC of representative grafts) is recorded as “decreased expression”. Further, the “infiltration of T cells (CD3 positive cells)” value in assay [1] (IHC, vs PBS treated group) is on record as “decreased infiltration of T cells”. Further, the “proliferation index (% Ki-67 positive cells) in the xenografted skin” value in assay [1] (IHC) was “trend towards decrease in proliferation index”; in assay [1] (IHC, listed as C1ORF ECD-Fc (SEQ ID NO:43)), “most pronounced reduction”. Further, the “Epidermal thickness of graft” value worked out at 904 μm in assay [1] (Source of graft (Patient) A); 397 μm in assay [1] (Source of graft (Patient) B); 603 μm in assay [1] (Source of graft (Patient) C); 441 μm in assay [1] (Source of graft (Patient) D); 335 μm in assay [1] (Source of graft (Patient) E); 598 μm in assay [1] (Source of graft (Patient) G1). Further, the entries for the “Epidermal thickness of graft” value in assay [1] (Source of graft (Patient) G2), in assay [1] (Source of graft (Patient) H) and in assay [1] (Source of graft (Patient) K) were 775 μm, 253 μm and 268 μm, respectively. For the same compound, the “Epidermal thickness of grafts, Mean” value in assay [1] was 508 μm. Also, the “epidermal thickness compared with the vehicle-treated group” value in assay [1] (one-tailed t-Test, listed as C1ORF ECD-Fc (SEQ ID NO:43)) is “significant reduction in epidermal thickness”. In addition, the TNFa secretion result in assay [2] (RA patients' (n=2) and healthy volunteers blood (n=1) samples) is listed as “marked inhibition”. In addition, the “IL-10, IL-15, IFNa, IL-7 secretion levels” value in assay [2] (setting [4]) is on record as “No effect”. Besides, the “secretion of IFNg, IL-1RA, IL-17, IL-12, IL-13, IL-6 and IL-2R” value in assay [2] (setting [4]) is “to a lesser extent also downregulated”. For the same compound, the “secretion of TNFa, CCL5, CCL3, GM-CSF, and IL-5” value in assay [2] (setting [4]) was “inhibited”.
